# From PMC4830886, “Extended evaluation on the ES-D3 cell differentiation assay combined with the BeWo transport model, to predict relative developmental toxicity of triazole compounds” (Archives of Toxicology, 2015)
# Marks after values point to notes of the source that are not given here.
# Columns and labels:
# time-mated Wistar rats = assay: in vivo maternal and prenatal developmental toxicity screening study (OECD 414 principles); conditions: rat
# From the text: The major differences to a full guideline study were the smaller sample size, using 9–10 instead of at least 16 pregnant rats, per test substance.
# The animals were paired by the breeder [time-mated Wistar rats, Crl: WI (Han), Charles River Laboratories, Sulzfeld, Germany], between 10 and 12 weeks of age, and supplied on the day of evidence of mating; this day is referred to as gestational day (GD) 0 and following day as GD 1. […] This strain has been extensively used, both in our laboratory and elsewhere, and is sensitive to reproductive toxicants. All rats were housed individually in Makrolon cages with Lignocel PS 14 fibers dust-free bedding and wooden enrichment blocks. The cages were kept in climate-controlled rooms at 20–24 °C with a relative humidity of 30–70 %, an air exchange rate of 15 times per hour and a 12-h light/dark cycle. Diet (Ground Kliba SA, Switzerland) and tap water were provided ad libitum. In-life data (mortality, clinical signs, body weights and food consumption) were recorded throughout the study, but presented only if relevant for the interpretation of prenatal developmental effects.
# The test compounds administered by gavage were administrated between 100 and 600 mg/kg bw/day using the vehicle 1 % carboxymethylcellulose in deionized water. The standard dose volume was 10 ml/kg bw.
# On GD 20, the surviving dams were anesthetized with isoflurane, killed by decapitation and examined macroscopically. For each dam, the uterus was opened and the number, distribution and classification of implantation sites (live fetus, early and late fetal resorptions, and dead fetus) were determined. The fetuses were removed, sexed and fetal body weight determined. Gross pathological examination of the fetuses, including assessment of abnormalities of the fetal membranes, placentas, amniotic fluid and umbilical cord, was performed. Subsequently, all fetuses were killed by injection of pentobarbital. […] The other half of the fetuses of each dam was fixed in Harrison’s fluid. […] A permanent structural change that is likely to affect adversely the survival or health was assessed as malformation. A change that also occurs in the fetuses of control animals and/or is unlikely to affect adversely the survival or health was assessed as variation. This includes delays in growth or morphogenesis that have otherwise followed a normal pattern of development.
# Maternal toxicity was classified as slight if body weight and/or carcass weight reduction is not above 10 %, moderate if body weight and/or carcass weight reduction is between 10 and 20 % and severe if body weight and/or carcass weight reduction is above 20 %. All the in vivo data are expressed as the affected fetuses/litter.
# ES-D3 cells = assay: ES-D3 cell differentiation assay (differentiation into contracting cardiomyocytes); assay type: cell-based, mouse; conditions: for Corrected BMCd50: BMCd50 divided by relative Papp value (BeWo model); for IC50: Mus musculus, Cardiomyocyte, 240 h, concentration for 50 % reduction in number of differentiated EBs, BMD modelling, day 10, read-out: BMCd50
# Protocol: The murine ES-D3 cell line was purchased from ATCC (Wesel, Germany). The cells were maintained in polystyrene cell culture flasks (Corning, The Netherlands) in Dulbecco’s modified Eagle’s medium (DMEM, Invitrogen, Breda, The Netherlands), supplemented with 20 % heat-inactivated fetal calf serum (Lonza, BioWhittaker, Verviers, Belgium), 50 U/ml penicillin with 50 μg/ml streptomycin (Invitrogen), 2 mM L-glutamine (Invitrogen), 0.1 mM β-mercaptoethanol (Sigma-Aldrich) and 1 % (v/v) nonessential amino acids (Invitrogen), at 37 °C and 5 % CO2 in a humidified atmosphere. Cells were kept undifferentiated with 1000 U/ml murine leukemia inhibiting factor (LIF) (Sigma-Aldrich) and subcultured every 2–3 days using nonenzymatic cell dissociation solution (Sigma-Aldrich) to detach the cells.
# Differentiation assays were carried out to detect the effect of test compounds on the differentiation of ES-D3 cells into contracting cardiomyocytes using culture medium in the absence of LIF. On day 1, droplets of 20 μl cell suspension (3.75 × 10^4 cells/ml) were placed as hanging drops, to which the test compounds 0594, 0595, 0596, 0599, 0600 and 0618 were added at concentrations ranging from 0.2 to 60 μM (final solvent concentration 0.2 % DMSO), on the inner side of the lid of a 96-well plate. Sterile lids of Eppendorf tubes were placed on the corner wells of the plates to prevent contact of the drops with the plate. The wells of the 96-well plate were filled with 250 μl phosphate buffered saline (PBS) (Invitrogen), and the plate was sealed with Micropore tape (3M, Neuss, Germany) to prevent evaporation of the hanging drops. Plates were incubated for 3 days at 37 °C and 5 % CO2 in a humidified atmosphere. In the drops, cells formed embryonic bodies (EBs), which were transferred to nontissue culture-treated Petri dishes (diameter 6 cm, Greiner) with 5 ml of medium with test compound. On day 5, the EBs were transferred to a 24-well plate (Corning) with 1 ml of medium with test compound, with one EB per well. On day 10, the number of wells containing contracting EBs was determined by visual inspection using a light microscope. Solvent control (0.2 % DMSO in culture medium) was included in each experiment. The solvent control was also used to assess the quality of the batch of ES-D3 cells used in each individual test (cells being randomly distributed over test groups and solvent control). Tests were accepted for further analysis if at least 21 of the 24 wells of the solvent control contained contracting cardiomyocytes. For each test compound, three independent assays were performed. The results were expressed as “fraction of total,” with 1.0 implying all EBs in one 24-well plate differentiated into contracting cardiomyocytes.
# Different dichotomous concentration–response models were fitted to the in vitro developmental toxicity data obtained from the ES-D3 cell differentiation assay to calculate benchmark concentrations (BMC) using Environmental Protection Agency benchmark dose (BMD) software version 2.4. For each test compound, the BMCd50, representing the concentration for a 50 % reduction in the number of differentiated EBs, was derived. Models included in the evaluation were the gamma, logistic, loglogistic, probit, logprobit, multistage, weibull and the quantal-linear model. […] The lowest BMCd50 value was chosen from the accepted models.
# To combine in vitro developmental toxicity data obtained from the ES-D3 cell differentiation assay with placental transfer data obtained from the BeWo transport model, a corrected BMCd50 value was calculated by dividing the BMCd50 values by the relative Papp values, as described in Li et al. ([2015]).
# [1] = gavage GD 6–19, 100 mg/kg, affected fetuses/litter
# [2] = gavage GD 6–19, 600 mg/kg, affected fetuses/litter
compound,measurement,setting,value
"CC(c1nc(-c2ccc(C#N)cc2)cs1)C(O)(Cn1ccnc1)c1ccc(F)cc1 (centres unmarked) [compound 0599, 4-[2-[2-(4-Fluorophenyl)-2-hydroxy-3-imidazol-1-yl-1-methyl-propyl]thiazol-4-yl]benzonitrile]",Early resorption (%),"time-mated Wistar rats; gavage GD 6–19, 100 mg/kg",7.8%
same,Fetal weight (%),"time-mated Wistar rats; gavage GD 6–19, 100 mg/kg",102%
same,Late resorption (%),"time-mated Wistar rats; gavage GD 6–19, 100 mg/kg",0.8%
same,Maternal carcass weight (CW),"time-mated Wistar rats; gavage GD 6–19, 100 mg/kg",91%
same,Placenta weight (%),"time-mated Wistar rats; gavage GD 6–19, 100 mg/kg",116%
same,Postimplantation loss (%),"time-mated Wistar rats; gavage GD 6–19, 100 mg/kg",8.6%
same,Total number of fetuses,"time-mated Wistar rats; gavage GD 6–19, 100 mg/kg",99
same,Maternal body weight change BWC (6–8),"time-mated Wistar rats; gavage GD 6–19, 100 mg/kg, GD 6–8",66%
same,Maternal food consumption FC (6–20),"time-mated Wistar rats; gavage GD 6–19, 100 mg/kg, GD 6–20",> 74%
same,"Malformation, CP (cleft palate)",time-mated Wistar rats; [1],10%
same,"Malformation, Total (skeletal)",time-mated Wistar rats; [1],100%
same,Misshapen basisphenoid,time-mated Wistar rats; [1],74.2%
same,Misshapen temporal bone,time-mated Wistar rats; [1],85.4%
same,Small tuberositas deltoidea,time-mated Wistar rats; [1],66.3%
same,Maternal mortality,"time-mated Wistar rats; gavage GD 6–19, 250 mg/kg",Mortality 100 %**
same,Total number of fetuses,"time-mated Wistar rats; gavage GD 6–19, 250 mg/kg",0
same,Ranking (in vivo prenatal developmental toxicity potency),"time-mated Wistar rats; 1 = highest potential, 6 = lowest, among the six test compounds",1
same,Corrected BMCd50,ES-D3 cells,3.8 µM
same,IC50,ES-D3 cells,1.8 µM
"CC1CC(C)OC(Cn2cncn2)(c2ccc(Oc3ccc(Cl)cc3)cc2Cl)O1 (centres unmarked) [compound 0600, 1-[[2-[2-Chloro-4-(4-chlorophenoxy)phenyl]-4,6-dimethyl-1,3-dioxan-2-yl]methyl]-1,2,4-triazole]",Ranking (in vivo prenatal developmental toxicity potency),"time-mated Wistar rats; female, Wistar Crl:WI(Han), in vivo",3
same,Early resorption (%),"time-mated Wistar rats; gavage GD 6–19, 200 mg/kg",4.0%
same,Fetal weight (%),"time-mated Wistar rats; gavage GD 6–19, 200 mg/kg",102%
same,Late resorption (%),"time-mated Wistar rats; gavage GD 6–19, 200 mg/kg",0.0%
same,Maternal toxicity classification,"time-mated Wistar rats; gavage GD 6–19, 200 mg/kg",No
same,Maternal toxicity findings,"time-mated Wistar rats; gavage GD 6–19, 200 mg/kg",NAD
same,Placenta weight (%),"time-mated Wistar rats; gavage GD 6–19, 200 mg/kg",105%
same,Postimplantation loss (%),"time-mated Wistar rats; gavage GD 6–19, 200 mg/kg",4.0%
same,Total number of fetuses,"time-mated Wistar rats; gavage GD 6–19, 200 mg/kg",99
same,"Malformation, Total (skeletal)","time-mated Wistar rats; gavage GD 6–19, 200 mg/kg, affected fetuses/litter",Total 0%
same,Early resorption (%),"time-mated Wistar rats; gavage GD 6–19, 600 mg/kg",6.0%
same,Fetal weight (%),"time-mated Wistar rats; gavage GD 6–19, 600 mg/kg",102%
same,Late resorption (%),"time-mated Wistar rats; gavage GD 6–19, 600 mg/kg",1.0%
same,Placenta weight (%),"time-mated Wistar rats; gavage GD 6–19, 600 mg/kg",130%
same,Postimplantation loss (%),"time-mated Wistar rats; gavage GD 6–19, 600 mg/kg",7.0%
same,Total number of fetuses,"time-mated Wistar rats; gavage GD 6–19, 600 mg/kg",104
same,"Malformation, CP (cleft palate)",time-mated Wistar rats; [2],5%
same,"Malformation, Total (skeletal)",time-mated Wistar rats; [2],81%
same,Misshapen pterygoid bones,time-mated Wistar rats; [2],36.3%
same,Small tuberositas deltoidea,time-mated Wistar rats; [2],48.1%
same,Corrected BMCd50,ES-D3 cells,21.0 µM
same,IC50,ES-D3 cells,4.2 µM
